{
  "source": "patent US20260216359A1",
  "about": "“CYCLIC PEPTIDE-BASED LYSOSOME TARGETING DEGRADERS” (Wisconsin Alumni Research Foundation, priority 2023, published 2026)",
  "key": {"EGFR": {"tested_on": "EGFR", "assay": "inhibition of Ctx-PEG12-cRGD-induced EGFR degradation in MCF7 cells, western blot", "type": "cell-based", "conditions": "BAF1 50 nM, CQ 10 uM, in the presence of 10 nM Ctx-PEG12-cRGD for 6h", "procedure": "MCF7 cells were seeded at 70% confluence in a 24-well plate and incubated in 350 μL complete culture media overnight. Cells were pre-treated with free excess cRGD-azide with concentrations indicated in the figure at 4° C. for 1 h before incubating with 10 nm Ctx-PEG12-cRGD for 8 h. Cells were then harvested for western blot.\nMCF7 cells were seeded at 70% confluence in a 24-well plate and incubated in 350 μL complete culture media overnight. Cells were treated with lysosomal degradation inhibitor Bafilomycin A1 (BAF1) at 50 nM and Chloroquine (CQ) at 10 uM in the presence of 10 nM Ctx-PEG12-cRGD for 6h."}, "anti-biotin-647": {"tested_on": "anti-biotin-647", "assay": "lysosomal degradation of anti-biotin-647 in MCF7 cells, in gel fluorescence", "type": "cell-based", "conditions": "25 nM Ab-cRGD and 50 nM anti-biotin-647 for 3 h, then 50 nM BAF1 for 3 h", "procedure": "MCF7 cells were seeded in a 48-well plate at 70% confluence and maintained in 200 μL complete culture media. Next day, cells were incubated with 25 nM of Ab-cRGD and 50 nM of anti-biotin-647 for 3 h followed by three washes with PBS. Cells were then maintained in fresh media with or without 50 nM Bafilomycin A1 (BAF1) for another 3 h before harvested for in gel fluorescence analysis."}, "α5β1": {"biological_target": "α5β1 (Homo sapiens, UniProt P05556+P08648)", "sequence (P08648 42-894 limits assumed)": "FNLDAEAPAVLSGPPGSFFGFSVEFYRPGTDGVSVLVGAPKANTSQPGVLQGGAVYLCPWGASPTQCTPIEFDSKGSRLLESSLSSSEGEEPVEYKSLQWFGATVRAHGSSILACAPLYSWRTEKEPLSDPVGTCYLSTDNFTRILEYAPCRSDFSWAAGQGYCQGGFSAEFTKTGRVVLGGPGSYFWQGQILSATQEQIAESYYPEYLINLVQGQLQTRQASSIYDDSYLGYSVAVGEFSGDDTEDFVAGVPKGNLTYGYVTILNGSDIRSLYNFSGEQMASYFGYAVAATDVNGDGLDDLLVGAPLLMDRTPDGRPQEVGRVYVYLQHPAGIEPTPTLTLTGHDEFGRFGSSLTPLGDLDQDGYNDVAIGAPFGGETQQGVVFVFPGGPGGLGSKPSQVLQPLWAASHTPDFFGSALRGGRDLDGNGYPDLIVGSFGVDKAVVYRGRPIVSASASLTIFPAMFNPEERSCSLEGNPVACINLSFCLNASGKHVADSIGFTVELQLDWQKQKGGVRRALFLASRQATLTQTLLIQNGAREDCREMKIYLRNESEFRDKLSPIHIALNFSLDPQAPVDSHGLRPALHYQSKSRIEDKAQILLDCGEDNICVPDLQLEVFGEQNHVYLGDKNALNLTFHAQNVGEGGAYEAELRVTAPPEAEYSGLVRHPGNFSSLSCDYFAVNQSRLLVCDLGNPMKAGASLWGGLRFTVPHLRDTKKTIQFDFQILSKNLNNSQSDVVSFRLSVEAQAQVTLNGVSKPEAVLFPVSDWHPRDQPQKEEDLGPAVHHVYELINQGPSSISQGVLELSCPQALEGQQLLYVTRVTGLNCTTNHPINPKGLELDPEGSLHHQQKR", "sequence (P08648 895-995 partner limits assumed)": "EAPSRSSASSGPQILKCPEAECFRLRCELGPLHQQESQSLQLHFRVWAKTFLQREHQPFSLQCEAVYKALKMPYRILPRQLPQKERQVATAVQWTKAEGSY", "sequence (P05556 21-728 limits assumed)": "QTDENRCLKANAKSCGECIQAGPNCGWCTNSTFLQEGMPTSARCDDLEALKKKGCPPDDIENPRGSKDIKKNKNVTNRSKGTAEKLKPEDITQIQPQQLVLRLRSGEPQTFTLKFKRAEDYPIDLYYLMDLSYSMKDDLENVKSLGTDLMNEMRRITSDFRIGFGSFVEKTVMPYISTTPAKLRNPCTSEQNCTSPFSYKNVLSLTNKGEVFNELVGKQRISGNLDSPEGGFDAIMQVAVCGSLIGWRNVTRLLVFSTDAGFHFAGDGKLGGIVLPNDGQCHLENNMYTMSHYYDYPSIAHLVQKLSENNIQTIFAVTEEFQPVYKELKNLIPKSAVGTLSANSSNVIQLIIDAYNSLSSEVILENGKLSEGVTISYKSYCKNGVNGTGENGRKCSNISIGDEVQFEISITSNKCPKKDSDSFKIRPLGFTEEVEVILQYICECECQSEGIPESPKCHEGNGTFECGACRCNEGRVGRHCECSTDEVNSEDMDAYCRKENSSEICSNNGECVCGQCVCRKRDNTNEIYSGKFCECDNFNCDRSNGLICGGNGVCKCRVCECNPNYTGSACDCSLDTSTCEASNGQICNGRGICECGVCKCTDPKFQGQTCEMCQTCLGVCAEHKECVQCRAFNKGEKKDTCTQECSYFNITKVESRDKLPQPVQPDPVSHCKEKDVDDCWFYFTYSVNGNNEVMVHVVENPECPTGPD", "conditions": "Kapp et al., 2017; one range given for αvβ5, αvβ6, α5β1; cited from earlier work"}},
  "data": [
    {"compound": "CO/C1=C\\C(C)=C\\[C@@H](C)[C@@H](O)[C@@H](C)C/C(C)=C/C=C/[C@H](OC)[C@@H]([C@@H](C)[C@@H](O)[C@H](C)[C@@]2(O)C[C@@H](O)[C@H](C)[C@@H](C(C)C)O2)OC1=O", "note": "[Bafilomycin A1]", "values": [
      {"measurement": "inhibition of EGFR degradation by lysosomal degradation inhibitors (FIG. 16)", "setting": "EGFR", "result": "inhibition of EGFR degradation"},
      {"measurement": "inhibition of lysosomal degradation of anti-biotin-647 (FIG. 14)", "setting": "anti-biotin-647", "result": "inhibition of lysosomal degradation of anti-biotin-647"}
    ]},
    {"compound": "CCN(CC)CCCC(C)Nc1ccnc2cc(Cl)ccc12", "note": "(stereo not shown) [Chloroquine]", "values": [
      {"measurement": "inhibition of EGFR degradation by lysosomal degradation inhibitors (FIG. 16)", "setting": "EGFR", "result": "inhibition of EGFR degradation"}
    ]},
    {"compound": "cyclo(Arg-Gly-Asp-D-Phe-Lys) [cRGD]", "values": [
      {"measurement": "binding to α5β1", "setting": "α5β1", "result": "50 to 350", "unit": "nM"}
    ]}
  ]
}
